Tests used:
Assay type in all cases: in vivo
[1] = test system: (IL-6 plus IL-6sR)-induced arthritic pain in rat; assay: IL6 Rat: time course of alleviation of (IL-6 plus IL-6sR)-induced arthritic pain (Method Example 2); conditions: 10 mg/kg oral 1 hour before 100 ng hrIL-6 + 300 ng hrIL-6sR; Time 1 and 3 hours post injection
Text: (§1) Animals were fed standard rat chow with water available ad libitum.
(§2) Each data point is the mean of three readings of 5 seconds duration.

[2] = test system: (IL-6 plus IL-6sR)-induced arthritic pain in rat; assay: IL6 Rat: dose response alleviation of (IL-6 plus IL-6sR)-induced arthritic pain (Method Example 1); conditions: oral dose of 10 mg/kg or greater (1, 3, 10, 30 mg/kg tested) 1 hour before 100 ng hrIL-6 + 300 ng hrIL-6sR; measured 1 hour post injection
Text: as §1, §2

rat knee joint [3] = assay: (IL-6)-, (IL-6sR)-, (IL-6 plus IL-6sR)- and (heat inactivated IL-6 plus IL-6sR)-induced joint pain (Demonstration Example 3); conditions: intra-articular in 50 μL PBS, 1 hour post injection
Procedure: (§3) It should be appreciated that in all of the below examples, unless indicated otherwise, male Wistar rats (175-200 g) were housed in solid bottom isolator cages, 2-4 rats per cage, with corncob bedding on a 12 hour:12 hour light:dark cycle. Animals were fed standard rat chow with water available ad libitum.
It should be appreciated that in all of the below examples, hind paw weight bearing differentials between the paw of the limb having the control joint (in animals administered test compound vehicle only) and the paw of the limb having the contralateral test joint (in control or inducement animals administered test compound vehicle only and in treatment animals administered test compound dissolved in test compound vehicle) were determined using an incapacitance tester, model 2KG (Linton Instrumentation, Norfolk, United Kingdom). […] Each data point is the mean of three readings of 5 seconds duration. The hind paw weight bearing differentials were expressed in grams and calculated as the [sum of (the weight in grams placed on the control limb minus the weight in grams placed on the contralateral test limb for each animal in the inducement or treatment animal group)] divided by the number of animals in the inducement or treatment animal group. […]

rat knee joint [4] = assay: (IL-6)-induced joint pain, hind paw weight bearing differential (Demonstration Example 1); conditions: for change in hind paw weight differential compared to the vehicle control group: male Wistar rats
Procedure: as §3
It should be appreciated that in all of the below examples, hind paw weight bearing differentials between the paw of the limb having the control joint (in animals administered test compound vehicle only) and the paw of the limb having the contralateral test joint (in control or inducement animals administered test compound vehicle only and in treatment animals administered test compound dissolved in test compound vehicle) were determined using an incapacitance tester, model 2KG (Linton Instrumentation, Norfolk, United Kingdom). The incapacitance tester has a chamber on top with an outwardly sloping front wall that supports a rat's front limbs, and two weight sensing pads, one for each hind paw, that facilitates this determination. Each data point is the mean of three readings of 5 seconds duration. The hind paw weight bearing differentials were expressed in grams and calculated as the [sum of (the weight in grams placed on the control limb minus the weight in grams placed on the contralateral test limb for each animal in the inducement or treatment animal group)] divided by the number of animals in the inducement or treatment animal group. […] All results were statistically analyzed by comparing the average results for an induction or treatment group with the average result for its control group at the same time point using analysis of covariance (“ANCOVA”) followed by the Hochberg's procedure and those with statistical significance had ρ<0.05 unless otherwise noted.
It should also be appreciated that the IL-6 and IL-6sR used as described in all of the below examples was the commercially available recombinant human IL-6 and recombinant human IL-6sR purchased from R&D Systems, Minneapolis, Minn.
It should also be appreciated that prior to injection of hrIL-6, hrIL-6sR, or hrIL-6 plus hrIL-6sR in all of the below examples, rats were anesthetized with 5% volume/volume (“v/v”) isoflurane gas until knocked down and maintained with 2% v/v isoflurane. Rats became fully conscious about 5 minutes after isoflurane administration was discontinued.
Hind-paw weight differentials between the right joint and the left joint of male Wistar rats (150 g) were determined for 30 rats with the incapacitance tester. Rats were then randomly divided into five groups of 6 rats each, a control group and four inducement groups. Rats were anesthetized with 5% v/v isoflurane gas until knocked down and maintained with 2% v/v isoflurane gas. At Time 0, each rat was injected with 50 μL of PBS into a control knee. In addition, each rat in the control group was injected with 50 μL of PBS into the contralateral test knee and each rat in each of the four inducement groups was injected with 50 μL of PBS containing 10 ng, 30 ng, 100 ng, or 300 ng, respectively, of hrIL-6. The injections were done through the patellar ligament into the knee joint space. The isoflurane gas was discontinued. At Times 1, 3, and 6 hours, pain in each rat was characterized by measuring hind paw weight bearing differentials with the incapacitance tester, and the results were statistically analyzed.

Molecule: CS(=O)(=O)c1ccc(C2=C(c3ccccc3)C(=O)OC2)cc1 [rofecoxib]
- change in hind paw weight distribution (pain) compared to test compound vehicle alone [1]: reduced pain in a statistically significant manner
- percent inhibition of a change in hind paw weight distribution, compared to test compound vehicle alone [2]: inhibit pain in a statistically significant manner

Molecule: hrIL-6: commercially available recombinant human IL-6 purchased from R&D Systems
- induction of pain in the joint (hind paw weight distribution) (rat knee joint [3]; 100 ng alone): will induce pain
- change in hind paw weight differential compared to the vehicle control group (rat knee joint [4]; 10 ng intra-articular in 50 μL PBS, 1, 3, or 6 hours post injection): did not produce a statistically significant change
- change in hind paw weight differential compared to the vehicle control group (rat knee joint [4]; 30 ng intra-articular in 50 μL PBS, 1 and 3 hours post injection): statistically significant change
- change in hind paw weight differential compared to the vehicle control group (rat knee joint [4]; 30 ng intra-articular in 50 μL PBS, 6 hours post injection): non-significant
- change in hind paw weight differential compared to the vehicle control group (rat knee joint [4]; 100 ng intra-articular in 50 μL PBS, 1, 3, and 6 hours post injection): statistically significant change
- change in hind paw weight differential compared to the vehicle control group (rat knee joint [4]; 300 ng intra-articular in 50 μL PBS, 1, 3, and 6 hours post injection): statistically significant change
- amount that will induce pain in the joint on intra-articular injection (rat knee joint [4]; hrIL-6 only, rat knee joint): more than 10 ng

B1: hrIL-6sR: commercially available recombinant human IL-6sR (interleukin-6 soluble receptor) purchased from R&D Systems (protein, UniProt P08887 20-365, looked up)
extracellular domain: LAPRRCPAQEVARGVLTSLPGDSVTLTCPGVEPEDNATVHWVLRKPAAGSHPSRWAGMGRRLLLRSVQLHDSGNYSCYRAGRPAGTVHLLVDVPPEEPQLSCFRKSPLSNVVCEWGPRSTPSLTTKAVLLVRKFQNSPAEDFQEPCQYSQESQKFSCQLAVPEGDSSFYIVSMCVASSVGSKFSKTQTFQGCGILQPDPPANITVTAVARNPRWLSVTWQDPHSWNSSFYRLRFELRYRAERSKTFTTWMVKDLQHHCVIHDAWSGLRHVVQLRAQEEFGQGEWSEWSPEAMGTPWTESRSPPAENEVSTPMQALTTNKDDDNILFRDSANATSLPVQDSSSVPLP
modifications: extracellular domain
notes: commercially available recombinant human IL-6sR (interleukin-6 soluble receptor) purchased from R&D Systems
- induction of pain in the joint (hind paw weight distribution) (rat knee joint [3]; 300 ng alone): will induce pain

From patent publication US20040241092A1, “Method for determining alleviation of pain in an animal” (priority 2003, published 2004)
